Data as given in patent US7998965B2, “Glutamate aggrecanase inhibitors” (Wyeth LLC, priority 2005, dated 2011).

Columns and labels:
[1] = target: T1, purified recombinant human Aggrecanase-1 (rAgg1) (Homo sapiens, UniProt O75173); assay: In vitro fluorescence screen for Aggrecanase-1 inhibitors; assay type: biochemical; settings: Table 1; for IC50: read-out: Agg1 IC50; for Ki: enzyme not given, column follows Agg1 IC50, read-out: Ki
T1 sequence (O75173 213-837): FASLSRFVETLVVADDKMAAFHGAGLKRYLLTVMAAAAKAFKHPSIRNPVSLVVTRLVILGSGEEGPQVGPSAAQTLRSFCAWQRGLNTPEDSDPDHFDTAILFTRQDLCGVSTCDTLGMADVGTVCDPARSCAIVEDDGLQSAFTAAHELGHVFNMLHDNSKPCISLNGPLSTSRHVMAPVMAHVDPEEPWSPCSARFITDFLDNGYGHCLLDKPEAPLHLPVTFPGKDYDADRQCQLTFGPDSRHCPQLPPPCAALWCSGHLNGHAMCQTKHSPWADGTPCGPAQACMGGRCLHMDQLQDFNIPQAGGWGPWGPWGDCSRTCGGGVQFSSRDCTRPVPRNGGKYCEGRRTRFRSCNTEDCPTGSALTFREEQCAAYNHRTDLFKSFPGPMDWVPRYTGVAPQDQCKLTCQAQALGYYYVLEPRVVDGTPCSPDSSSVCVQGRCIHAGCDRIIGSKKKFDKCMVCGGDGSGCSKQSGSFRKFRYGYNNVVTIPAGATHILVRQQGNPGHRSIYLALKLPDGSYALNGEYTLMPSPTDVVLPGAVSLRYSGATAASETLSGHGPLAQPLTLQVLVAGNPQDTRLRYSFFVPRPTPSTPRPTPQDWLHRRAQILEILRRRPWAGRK

[2] = target: T2, purified recombinant human Aggrecanase-2 (Ag2t-Phe628-Strep) (Homo sapiens, UniProt Q9UNA0); assay: In vitro fluorescence screen for Aggrecanase-2 inhibitors; assay type: biochemical; settings: Table 1; read-out: Agg 2 IC50
T2 construct: the form used is denoted as Ag2t-Phe628-Strep (MW=41,737)
T2 sequence (Q9UNA0 262-628): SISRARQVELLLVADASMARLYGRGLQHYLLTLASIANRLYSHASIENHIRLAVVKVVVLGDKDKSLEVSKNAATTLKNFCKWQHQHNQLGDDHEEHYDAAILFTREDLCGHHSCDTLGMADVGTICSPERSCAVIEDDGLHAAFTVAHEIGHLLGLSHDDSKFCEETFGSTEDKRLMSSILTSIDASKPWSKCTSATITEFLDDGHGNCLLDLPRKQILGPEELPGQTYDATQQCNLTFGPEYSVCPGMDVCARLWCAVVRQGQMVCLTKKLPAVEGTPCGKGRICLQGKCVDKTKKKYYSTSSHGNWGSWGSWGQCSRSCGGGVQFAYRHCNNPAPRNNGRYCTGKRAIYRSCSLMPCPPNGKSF

[3] = target: T3, recombinant human catalytic domain of MMP-13 (Homo sapiens, UniProt P45452); assay: In vitro fluorescence assay of MMP-13 activity; assay type: biochemical; settings: Table 1; unit inferred
T3 construct: catalytic domain of MMP-13 (165 amino acids, residues 104-268, 19 kDa)

[4] = target: T4, recombinant human catalytic domain of MMP-14 (Homo sapiens, UniProt P50281); assay: In vitro fluorescence assay of MMP-14 activity; assay type: biochemical; settings: Table 1; unit inferred
T4 construct: 177 amino acids corresponding to Tyr89-Gly265 of mature human enzyme; purchased Chemicon International, Inc. CC1041

[5] = tested on: bovine articular cartilage treated with Interleukin 1 alpha (IL-1α); assay: Bovine articular cartilage explant cultures: inhibition of degradation of proteoglycan; assay type: cell-based; settings: inhibitory effect expressed as percentage, concentration not printed
Excerpt: This in vitro procedure was used to evaluate the effect and relative potencies of small molecule compounds to inhibit the degradation of proteoglycan in articular cartilage treated with Interleukin 1 alpha (IL-1α). Treatment of articular cartilage with IL 1α induces expression of a cascade of enzymes that initiates cartilage matrix degradation. This assay was utilized to select small molecule compounds that inhibit the enzyme activity and protects cartilage matrix degradation.
Articular cartilage: bovine metacarpal joints were disinfected with 10% Wescodyne followed by 70% ethanol. 6 mm articular cartilage discs were prepared and rinsed once in PBS and medium, respectively. The discs were cultured in a stirring flask with serum-free medium for 5 days for equilibrium with one medium change. Small molecule compounds: stock solutions of test small molecule compounds (usually at 5 mg/ml) were prepared in DMSO. Working solutions were diluted with DMSO and generally ranged from 0.1 μg/ml to 10 ug/ml. The DMSO stocks were stored at […]. Articular cartilage explant culture medium: DMEM, 2 mM glutamax, 100 U/ml of antibiotic and antimycotic, 50 μg/ml ascorbate and 10 mM Hepes (pH-7.0). Proteoglycan content-Dimethyl methylene blue (DMMB) solution: […] DMMB, 10 ml 100% ethanol, 29.5 ml of 1M NaOH, 3.5 ml of 98% formic acid and water to 1 L. Chondroitin sulphate sodium salt: 1.56-200 ug/ml serial dilutions.
For the explant culture, cartilage discs were cultured in serum-free medium for 48 h or more. Discs were weighed and transferred to a 96-well plate, 1 disc per-well. 0.2 ml of medium containing 5 ng/ml of IL-1 and different concentrations of compounds were added to each well, with 3 wells allocated for each treatment. The medium was collected at days 1, 2, & 3 and replaced accordingly.
For the DMMB assay, conditioned medium (CM) samples were diluted with medium. 10 ul of each standard or diluted sample was added in duplicate into a 96-well-plate and 200 μl of DMMB solution was added into each well. Absorbance at 520 nm was measured for each well. Proteoglycan contents in CM were calculated daily.
The proteoglycan contents are expressed as ug per mg of cartilage. The inhibitory effect of the compounds is expressed as percentage. (See, Tortorella, M. D. et al., Science 1999, 284, 1664-1666).

MMP-1 = target: T5, MMP-1 (Homo sapiens, UniProt P03956); assay: MMP-1 of Table 1; assay type: biochemical; settings: for IC50: unit inferred; for MMP-1: unit not given
T5 sequence (P03956 100-469): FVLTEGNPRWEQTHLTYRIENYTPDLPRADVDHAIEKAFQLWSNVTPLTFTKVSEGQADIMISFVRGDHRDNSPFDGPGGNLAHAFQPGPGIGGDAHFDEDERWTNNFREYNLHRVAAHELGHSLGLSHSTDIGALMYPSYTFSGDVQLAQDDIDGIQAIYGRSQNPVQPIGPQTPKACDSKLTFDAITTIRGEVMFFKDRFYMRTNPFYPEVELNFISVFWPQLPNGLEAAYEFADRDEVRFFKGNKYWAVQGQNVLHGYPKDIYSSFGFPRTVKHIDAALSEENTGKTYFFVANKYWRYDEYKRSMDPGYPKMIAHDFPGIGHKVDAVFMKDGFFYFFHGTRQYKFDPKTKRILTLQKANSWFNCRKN

recombinant human MMP-2 = target: T6, recombinant human MMP-2 (Homo sapiens, UniProt P08253); assay: In vitro fluorescence assay of MMP-2 activity
T6 sequence (P08253 110-660): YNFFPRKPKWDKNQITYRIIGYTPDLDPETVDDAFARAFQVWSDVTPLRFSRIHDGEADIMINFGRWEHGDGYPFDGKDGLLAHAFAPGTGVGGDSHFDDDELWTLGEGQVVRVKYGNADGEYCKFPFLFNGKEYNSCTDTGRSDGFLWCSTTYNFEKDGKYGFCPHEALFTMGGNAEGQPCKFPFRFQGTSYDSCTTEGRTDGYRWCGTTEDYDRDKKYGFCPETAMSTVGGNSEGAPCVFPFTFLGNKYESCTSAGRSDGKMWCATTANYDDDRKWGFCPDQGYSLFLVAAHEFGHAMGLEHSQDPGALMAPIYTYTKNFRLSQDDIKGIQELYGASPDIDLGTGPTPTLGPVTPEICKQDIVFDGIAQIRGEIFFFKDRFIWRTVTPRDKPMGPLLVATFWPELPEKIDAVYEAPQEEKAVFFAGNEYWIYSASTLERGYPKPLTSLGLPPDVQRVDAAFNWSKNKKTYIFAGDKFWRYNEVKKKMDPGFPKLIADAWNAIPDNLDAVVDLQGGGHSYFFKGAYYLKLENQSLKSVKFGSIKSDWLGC

[6] = Table 1, first of two columns headed bovine
[7] = Table 1, second of two columns headed bovine

IC50 [1] [µM] | IC50 [2] [µM] | IC50 [3] [µM] | IC50 [4] [µM] | IC50 (MMP-1) [µM] | IC50 (recombinant human MMP-2) [µM] | Ki [1] [µM] | MMP-1 (MMP-1) | SMILES | bovine [5, 6] [%] | bovine [5, 7] [%]
0.15 | 1.8 | ~13 | ~13 | > 100 | 3 | – | – | O=C(O)CC[C@H](NC(=O)c1ccc(-c2ccccc2)cc1)C(=O)NCc1ccc2c(c1)OCO2 [Example 7, N^1-(1,3-benzodioxol-5-ylmethyl)-N^2-(1,1′-biphenyl-4-ylcarbonyl)-L-α-glutamine] | 61 | 28
0.15 | 0.9 | ~40 | ~25 | > 100 | 4.4 | – | – | O=C(O)CC[C@H](NC(=O)c1ccc(-c2ccccc2)cc1)C(=O)NC1CCCCC1 [Example 8A, N^2-(1,1′-biphenyl-4-ylcarbonyl)-N^1-cyclohexyl-L-α-glutamine] | 75 | 29
0.46 | 1.9 | ~50 | ~25 | > 100 | 5.6 | – | – | O=C(O)CC[C@H](NC(=O)c1ccc(-c2ccccc2)cc1)C(=O)NC1CC1 [Example 8B, N^2-(1,1′-biphenyl-4-ylcarbonyl)-N^1-cyclopropyl-L-α-glutamine] | 54 | 22
0.11 | 1.2 | ~50 | ~25 | > 100 | 6 | – | – | CCCCNC(=O)[C@H](CCC(=O)O)NC(=O)c1ccc(-c2ccccc2)cc1 [Example 8C, N^2-(1,1′-biphenyl-4-ylcarbonyl)-N^1-butyl-L-α-glutamine] | 68 | 34
0.022 | 0.121 | ~22 | ~25 | – | 5.65 | 0.019 | no inh | COc1cc(CNC(=O)[C@H](CCC(=O)O)NC(=O)c2ccc(-c3ccccc3)cc2)cc(OC)c1 [Example 8CC, N^2-(1,1′-biphenyl-4-ylcarbonyl)-N^1-(3,5-dimethoxybenzyl)-L-α-glutamine] | 94 | 71
0.094 | 0.93 | ~22 | 16.2 | – | 4.58 | – | no inh | Cc1ccc(CNC(=O)[C@H](CCC(=O)O)NC(=O)c2ccc(-c3ccccc3)cc2)cc1C [Example 8DD, N^2-(1,1′-biphenyl-4-ylcarbonyl)-N^1-(3,4-dimethylbenzyl)-L-α-glutamine] | 89 | 50
0.09 | 0.746 | ~25 | ~25 | > 200 | 3.7 | – | – | O=C(O)CC[C@H](NC(=O)c1ccc(-c2ccccc2)cc1)C(=O)NC1CCCCCCC1 [Example 8E, N^2-(1,1′-biphenyl-4-ylcarbonyl)-N^1-cyclooctyl-L-α-glutamine] | 79 | 34
0.03 | 0.304 | ~22 | ~25 | > 200 | 5.63 | 0.012 | – | COc1ccc(CNC(=O)[C@H](CCC(=O)O)NC(=O)c2ccc(-c3ccccc3)cc2)cc1OC [Example 8F, N^2-(1,1′-biphenyl-4-ylcarbonyl)-N^1-(3,4-dimethoxybenzyl)-L-α-glutamine] | 81 | 56
0.08 | 0.614 | ~50 | ~25 | > 100 | ~50 | – | – | O=C(O)CC[C@H](NC(=O)c1ccc(-c2ccccc2)cc1)C(=O)NC1CCCC1 [Example 8G, N^2-(1,1′-biphenyl-4-ylcarbonyl)-N^1-cyclopentyl-L-α-glutamine] | 76 | 39
0.2 | 0.266 | ~50 | ~25 | > 100 | 3.31 | – | – | O=C(O)CC[C@H](NC(=O)c1ccc(-c2ccccc2)cc1)C(=O)NC1C2CC3CC(C2)CC1C3 (stereo partly drawn) [Example 8H, N^1-2-adamantyl-N^2-(1,1′-biphenyl-4-ylcarbonyl)-L-α-glutamine] | 85 | 67

SMILES | IC50 [1] [µM] | IC50 [2] [µM] | IC50 [3] [µM] | IC50 [4] [µM] | IC50 (MMP-1) [µM] | IC50 (recombinant human MMP-2) [µM] | Ki [1] [µM] | MMP-1 (MMP-1) | bovine [5, 6] [%] | bovine [5, 7] [%]
O=C(O)CC[C@H](NC(=O)c1ccc(-c2ccccc2)cc1)C(=O)NCc1ccc(F)cc1 [Example 8D, N^2-(1,1′-biphenyl-4-ylcarbonyl)-N^1-(4-fluorobenzyl)-L-α-glutamine] | 0.22 | – | ~25 | 17 | > 100 | 4.4 | – | – | 67 | 27
